According to ChEMBL document CHEMBL3301562, “MMV Box screening against Plasmodium falciparum protein kinases and aminoacyl tRNA synthetases”:

Tests used:
Type in all cases: functional
[1] = molecular target: T1, Cdk-related protein kinase 6 (Plasmodium falciparum, UniProt O77239); assay: Final concentrations were 1.5 uM ATP, 5 mM MnCl2, and 15 ug/ml PK6 in a buffer of 100 mM Tris-HCl (pH 7.5). 50 ug/mL MBP was provided as the substrate; 10 uM staurosporine was used as a control inhibitor. Incubation time was 3 hours and 40 minutes.The catalytic activity of each kinase was considered proportional to ATP consumed, as determined from measurements of residual [ATP] with the luciferase-based reagent Kinase-Glo (Promega) following incubation. Luminescence (proportional to residual [ATP]) was measured on the plate readers FLx800 (BioTek Instruments, Winooski, VT, USA) and MicroBeta2.
T1 sequence (O77239 whole entry): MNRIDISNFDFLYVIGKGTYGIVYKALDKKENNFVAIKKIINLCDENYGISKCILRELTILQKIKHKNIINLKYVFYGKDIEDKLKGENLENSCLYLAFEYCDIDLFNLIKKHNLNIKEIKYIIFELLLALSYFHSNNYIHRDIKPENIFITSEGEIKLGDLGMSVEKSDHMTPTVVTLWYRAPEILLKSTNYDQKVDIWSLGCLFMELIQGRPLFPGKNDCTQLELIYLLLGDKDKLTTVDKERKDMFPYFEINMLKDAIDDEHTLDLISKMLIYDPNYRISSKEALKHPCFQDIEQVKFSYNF

[2] = molecular target: T2, Putative uncharacterized protein pk7 (Plasmodium falciparum, UniProt O96214); assay: Final concentrations were 1 uM ATP, 2 mM DTT, 20 mM MgCl2, 2 mM MnCl2, 0.01% BSA, and 6 ug/ml PK7, in a buffer of 20 mM Tris-HCl (pH 7.5). The enzyme itself was the only substrate present (since autophosphorylation occurs); 100 uM 1NA-PP1 was used as a control inhibitor. Incubation time was 3 hours.
T2 sequence (O96214 whole entry): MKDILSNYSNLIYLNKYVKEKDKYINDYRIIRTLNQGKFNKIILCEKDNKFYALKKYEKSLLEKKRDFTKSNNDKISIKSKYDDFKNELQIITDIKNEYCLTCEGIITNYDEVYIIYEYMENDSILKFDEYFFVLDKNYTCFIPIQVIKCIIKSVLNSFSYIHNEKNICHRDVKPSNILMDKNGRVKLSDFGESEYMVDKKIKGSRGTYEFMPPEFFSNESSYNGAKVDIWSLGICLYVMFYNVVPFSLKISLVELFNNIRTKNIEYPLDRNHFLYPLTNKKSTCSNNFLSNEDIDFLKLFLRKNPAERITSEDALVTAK

[3] = molecular target: T3, Mitogen-activated protein kinase (Plasmodium falciparum, UniProt Q25917); assay: Final concentrations were 1 uM ATP, 0.5 mM DTT, 1 mM MgCl2, 0.5 mg/mL BSA, and 10 ug/ml MAP2 in a buffer of 50 mM HEPES (pH 7.0). 0.5 mg/mL histone III-S served as the substrate (13); 100 uM AMP-PNP, an ATP analog, was used as a control inhibitor. Incubation time was 4 hours.
T3 sequence (Q25917 whole entry): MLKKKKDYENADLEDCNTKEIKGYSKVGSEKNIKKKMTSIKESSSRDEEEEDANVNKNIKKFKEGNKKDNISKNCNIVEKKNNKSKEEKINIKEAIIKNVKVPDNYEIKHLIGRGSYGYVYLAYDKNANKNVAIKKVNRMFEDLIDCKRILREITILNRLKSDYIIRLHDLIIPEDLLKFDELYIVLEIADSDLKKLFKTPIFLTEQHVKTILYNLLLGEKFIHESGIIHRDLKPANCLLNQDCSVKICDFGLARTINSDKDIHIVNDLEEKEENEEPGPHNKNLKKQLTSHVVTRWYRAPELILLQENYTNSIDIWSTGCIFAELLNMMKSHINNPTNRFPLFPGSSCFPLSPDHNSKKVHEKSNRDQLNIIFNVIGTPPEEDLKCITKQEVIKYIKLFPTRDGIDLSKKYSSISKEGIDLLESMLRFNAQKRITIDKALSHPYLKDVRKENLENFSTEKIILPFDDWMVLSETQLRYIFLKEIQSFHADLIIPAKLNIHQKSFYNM

[4] = molecular target: Calcium-dependent protein kinase 1 (Plasmodium falciparum, UniProt P62344); assay: MMV: CDPK1 Protein kinase inhibition assay using recombinant PfCDPK1, syntide 2 peptide substrate, ATP and KinaseGlo to measure % inhibition at 1 uM MMV box compound.
[5] = molecular target: T4, Calcium-dependent protein kinase 4 (Plasmodium falciparum (isolate 3D7), UniProt Q8IBS5); assay: MMV: CDPK4 Protein kinase inhibition assay using recombinant PfCDPK4, syntide2 peptide substrate, ATP and KinaseGlo to measure % inhibition at 1 uM MMV box compound.
T4 sequence (Q8IBS5 whole entry): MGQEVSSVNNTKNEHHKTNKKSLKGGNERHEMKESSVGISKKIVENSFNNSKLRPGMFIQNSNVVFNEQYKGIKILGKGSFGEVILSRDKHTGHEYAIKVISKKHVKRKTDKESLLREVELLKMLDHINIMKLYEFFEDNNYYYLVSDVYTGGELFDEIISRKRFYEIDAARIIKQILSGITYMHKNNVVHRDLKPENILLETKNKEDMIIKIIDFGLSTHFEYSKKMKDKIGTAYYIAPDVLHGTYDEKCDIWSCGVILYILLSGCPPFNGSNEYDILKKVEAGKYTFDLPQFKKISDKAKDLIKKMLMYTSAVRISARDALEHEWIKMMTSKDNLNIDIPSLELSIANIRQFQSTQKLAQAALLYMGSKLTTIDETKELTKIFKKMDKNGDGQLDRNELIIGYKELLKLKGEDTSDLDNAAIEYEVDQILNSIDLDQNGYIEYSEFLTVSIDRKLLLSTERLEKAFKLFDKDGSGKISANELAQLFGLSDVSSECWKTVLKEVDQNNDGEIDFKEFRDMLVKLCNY

[6] = molecular target: T5, Proline--tRNA ligase (Plasmodium falciparum (isolate 3D7), UniProt Q8I5R7); assay: MMV: ProRS recombinant Plasmodium falciparum Prolyl-tRNA-synthetase, assay with yeast tRNA, ATP, and proline and 3 uM MMV malaria box compound, assay read out with kinase glo as % inhibition.
T5 sequence (Q8I5R7 whole entry): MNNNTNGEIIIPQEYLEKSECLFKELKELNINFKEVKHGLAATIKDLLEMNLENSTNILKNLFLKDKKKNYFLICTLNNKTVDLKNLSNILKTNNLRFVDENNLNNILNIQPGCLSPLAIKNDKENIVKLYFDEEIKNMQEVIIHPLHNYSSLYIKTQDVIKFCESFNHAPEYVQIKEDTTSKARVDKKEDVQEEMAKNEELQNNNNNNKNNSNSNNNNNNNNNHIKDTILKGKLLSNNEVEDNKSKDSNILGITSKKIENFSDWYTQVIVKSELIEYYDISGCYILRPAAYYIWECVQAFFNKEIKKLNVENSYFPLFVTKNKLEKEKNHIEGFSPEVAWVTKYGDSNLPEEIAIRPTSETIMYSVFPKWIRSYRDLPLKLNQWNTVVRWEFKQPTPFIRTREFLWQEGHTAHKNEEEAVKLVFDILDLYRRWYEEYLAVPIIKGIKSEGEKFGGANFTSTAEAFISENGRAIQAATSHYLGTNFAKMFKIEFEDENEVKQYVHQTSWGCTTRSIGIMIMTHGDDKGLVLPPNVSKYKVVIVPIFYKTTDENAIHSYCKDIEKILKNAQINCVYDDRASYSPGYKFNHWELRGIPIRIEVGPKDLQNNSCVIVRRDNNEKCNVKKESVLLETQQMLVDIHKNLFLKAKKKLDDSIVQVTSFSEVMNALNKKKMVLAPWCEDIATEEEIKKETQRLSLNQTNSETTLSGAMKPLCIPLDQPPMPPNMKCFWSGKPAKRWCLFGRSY

[7] = molecular target: Lysine--tRNA ligase (Plasmodium falciparum (isolate 3D7), UniProt Q8IDJ8); assay: MMV: KRS recombinant Plasmodium falciparum Lysyl-tRNA-synthetase, assay with yeast tRNA, ATP, and lysine and 3 uM MMV malaria box compound, assay read out with kinase glo as % inhibition.
Lysine--tRNA ligase, sequence (Q8IDJ8 whole entry): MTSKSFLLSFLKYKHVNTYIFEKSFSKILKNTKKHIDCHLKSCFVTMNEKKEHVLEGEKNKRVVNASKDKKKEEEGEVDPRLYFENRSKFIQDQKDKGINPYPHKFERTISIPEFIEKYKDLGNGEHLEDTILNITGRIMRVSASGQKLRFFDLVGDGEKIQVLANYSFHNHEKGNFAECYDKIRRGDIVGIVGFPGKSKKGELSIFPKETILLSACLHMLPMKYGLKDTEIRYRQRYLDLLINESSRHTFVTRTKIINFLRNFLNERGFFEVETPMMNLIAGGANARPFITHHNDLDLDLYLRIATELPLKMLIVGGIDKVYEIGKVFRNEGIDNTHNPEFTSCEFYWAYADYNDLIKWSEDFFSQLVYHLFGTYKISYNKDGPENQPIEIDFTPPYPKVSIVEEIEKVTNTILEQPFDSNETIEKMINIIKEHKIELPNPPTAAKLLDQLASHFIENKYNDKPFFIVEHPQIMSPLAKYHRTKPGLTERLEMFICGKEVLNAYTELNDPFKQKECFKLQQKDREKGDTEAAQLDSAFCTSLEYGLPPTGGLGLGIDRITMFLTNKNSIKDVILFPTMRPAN

Calcium-dependent protein kinase 1, sequence (P62344 whole entry): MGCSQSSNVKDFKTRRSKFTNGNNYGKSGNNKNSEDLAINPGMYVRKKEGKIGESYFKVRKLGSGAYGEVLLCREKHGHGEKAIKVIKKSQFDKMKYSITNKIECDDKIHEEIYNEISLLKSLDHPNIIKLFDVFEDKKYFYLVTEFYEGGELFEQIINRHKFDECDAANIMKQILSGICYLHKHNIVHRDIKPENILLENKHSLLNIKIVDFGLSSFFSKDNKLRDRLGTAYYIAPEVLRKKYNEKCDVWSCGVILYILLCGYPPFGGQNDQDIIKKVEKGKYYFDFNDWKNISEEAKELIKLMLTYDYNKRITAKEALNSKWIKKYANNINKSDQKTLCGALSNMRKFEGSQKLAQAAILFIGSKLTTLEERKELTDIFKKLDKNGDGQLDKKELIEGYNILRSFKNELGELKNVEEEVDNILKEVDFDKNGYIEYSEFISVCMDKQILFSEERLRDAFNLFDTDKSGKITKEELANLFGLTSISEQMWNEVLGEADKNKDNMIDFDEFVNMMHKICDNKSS

SMILES	IC50 [1]	IC50 [2]	IC50 [3]	IC50 [4]	IC50 [5]	IC50 [6]	IC50 [7]
O=C(NC1CCN(Cc2ccccc2)CC1)c1cc(C(=O)NC2CCN(Cc3ccccc3)CC2)cc(C(=O)NC2CCN(Cc3ccccc3)CC2)c1	> 1000 nM	> 1000 nM	> 1000 nM	> 1000 nM	> 1000 nM	> 2500 nM	> 2500 nM
Cc1cc(=O)oc2c1ccc1oc(C(=O)c3ccccc3)c(C)c12	> 1000 nM	> 1000 nM	> 1000 nM	> 1000 nM	> 1000 nM	> 2500 nM	> 2500 nM
CCCCCCn1c(=N)n(CC(O)COc2cccc(C)c2)c2ccccc21 (stereo not given)	> 1000 nM	> 1000 nM	> 1000 nM	> 1000 nM	> 1000 nM	> 2500 nM	> 2500 nM
FC(F)(F)c1cccc(Nc2nc(-c3ccccc3)nc3ncccc23)c1	> 1000 nM	> 1000 nM	> 1000 nM	> 1000 nM	> 1000 nM	> 2500 nM	> 2500 nM
CCC(=O)Nc1nnc(Cc2ccc(OC)c(OC)c2)s1	> 1000 nM	> 1000 nM	> 1000 nM	> 1000 nM	> 1000 nM	> 2500 nM	> 2500 nM
CC(C)(C)C(=O)Nc1ccc(C(=O)Nc2cccc(-c3nc4ccccc4[nH]3)c2)cc1	> 1000 nM	> 1000 nM	> 1000 nM	> 1000 nM	> 1000 nM	> 2500 nM	> 2500 nM
c1ccc(CNc2nc(Nc3ccccc3)nc3ccccc23)cc1	> 1000 nM	> 1000 nM	> 1000 nM	> 1000 nM	> 1000 nM	> 2500 nM	> 2500 nM
COc1ccc(C2NCCc3c2[nH]c2ccccc32)cc1CN1CCN(c2ccc(F)cc2)CC1 (stereo not given)	> 1000 nM	> 1000 nM	> 1000 nM	> 1000 nM	> 1000 nM	> 2500 nM	> 2500 nM
COc1cc(OC)cc(N2C(=O)N(Cc3ccc(C(C)(C)C)cc3)c3ccccc3S2(=O)=O)c1	> 1000 nM	> 1000 nM	> 1000 nM	> 1000 nM	> 1000 nM	> 2500 nM	> 2500 nM
CN1CCN(c2ncnc3c2[nH]c2ccc(Cl)cc23)CC1	> 1000 nM	> 1000 nM	> 1000 nM	> 1000 nM	> 1000 nM	> 2500 nM	> 2500 nM
